Assay results published in ChEMBL document CHEMBL1201862, “PubChem BioAssay data set” (2004).
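Five compound concentrations were applied to cells in 96-well plates for 48 hours; endpoints were derived by simple linear interpolation of the resulting dose-response curve. GI50 is the concentration that inhibits growth by half.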 Calls of active or inactive are those of the source. Rule as the data show it: active = GI50 up to about 1.1 µM and inactive = higher.

Columns and labels:
Test in all cases: NCI-60 cell line screen, 48 h
HL-60 = tested on: HL-60
SF-539 = tested on: SF-539
HOP-62 = tested on: HOP-62
LOX IMVI = tested on: LOX IMVI
DMS-273 = tested on: DMS-273
HOP-18 = tested on: HOP-18
M14 = tested on: M14
SW-620 = tested on: SW-620
HOP-92 = tested on: HOP-92
SK-MEL-2 = tested on: SK-MEL-2
U-251 = tested on: U-251
SK-OV-3 = tested on: SK-OV-3
KM12 = tested on: KM12
UACC-62 = tested on: UACC-62
HCT-116 = tested on: HCT-116
DMS-114 = tested on: DMS-114
LXFL 529 = tested on: LXFL 529
NCI-H522 = tested on: NCI-H522
SF-295 = tested on: SF-295
786-0 = tested on: 786-0
OVCAR-5 = tested on: OVCAR-5
HT-29 = tested on: HT-29
XF498 = tested on: XF498
EKVX = tested on: EKVX
RPMI-8226 = tested on: RPMI-8226
SR = tested on: SR
HCT-15 = tested on: HCT-15
NCI-H23 = tested on: NCI-H23
OVCAR-8 = tested on: OVCAR-8
SNB-19 = tested on: SNB-19
NCI-H460 = tested on: NCI-H460
UACC-257 = tested on: UACC-257
CCRF-CEM = tested on: CCRF-CEM
KM-20L2 = tested on: KM-20L2
K562 = tested on: K562
A498 = tested on: A498
OVCAR-3 = tested on: OVCAR-3
DLD-1 = tested on: DLD-1
MOLT-4 = tested on: MOLT-4
UO-31 = tested on: UO-31
A549 = tested on: A549
Malme-3M = tested on: Malme-3M
SK-MEL-5 = tested on: SK-MEL-5
TK-10 = tested on: TK-10
SF-268 = tested on: SF-268
SK-MEL-28 = tested on: SK-MEL-28
SNB-78 = tested on: SNB-78
M19-MEL = tested on: M19-MEL
IGROV-1 = tested on: IGROV-1
MDA-MB-231 = tested on: MDA-MB-231
SN12C = tested on: SN12C
MDA-MB-435 = tested on: MDA-MB-435
NCI-H226 = tested on: NCI-H226
DU-145 = tested on: DU-145
NCI/ADR-RES = tested on: NCI/ADR-RES
COLO 205 = tested on: COLO 205
Hs-578T = tested on: Hs-578T
HCC 2998 = tested on: HCC 2998
T47D = tested on: T47D
OVCAR-4 = tested on: OVCAR-4
MCF7 = tested on: MCF7
SNB-75 = tested on: SNB-75
CAKI-1 = tested on: CAKI-1
RXF 393 = tested on: RXF 393

With `CC(C)(Oc1ccc(C(=O)c2ccc(Cl)cc2)cc1Cl)C(=O)N1CCN(c2ccccc2)CC1` the GI50 (HL-60) was 60.8 µM (inactive), the GI50 (SF-539) was > 100 µM (inactive) and the GI50 (HOP-62) was > 100 µM (inactive). The GI50 (LOX IMVI) was > 100 µM (inactive), the GI50 (DMS-273) was 55.7 µM (inactive) and the GI50 (HOP-18) was > 100 µM (inactive). The GI50 (M14) was > 100 µM (inactive), the GI50 (SW-620) was > 100 µM (inactive) and the GI50 (HOP-92) was > 100 µM (inactive). The GI50 (SK-MEL-2) was > 100 µM (inactive), the GI50 (U-251) was > 100 µM (inactive) and the GI50 (SK-OV-3) was > 100 µM (inactive). For the same molecule, the GI50 (KM12) was > 100 µM (inactive), the GI50 (UACC-62) was > 100 µM (inactive) and the GI50 (HCT-116) was 82.2 µM (inactive). The GI50 (DMS-114) was 45.7 µM (inactive), the GI50 (LXFL 529) was > 100 µM (inactive) and the GI50 (NCI-H522) was 59 µM (inactive). For the same molecule, the GI50 (SF-295) was > 100 µM (inactive), the GI50 (786-0) was > 100 µM (inactive) and the GI50 (OVCAR-5) was > 100 µM (inactive). For the same molecule, the GI50 (HT-29) was > 100 µM (inactive), the GI50 (XF498) was 52.1 µM (inactive) and the GI50 (EKVX) was > 100 µM (inactive). The GI50 (RPMI-8226) was > 100 µM (inactive), the GI50 (SR) was 66.1 µM (inactive) and the GI50 (HCT-15) was > 100 µM. For the same molecule, the GI50 (NCI-H23) was 37.2 µM (inactive), the GI50 (OVCAR-8) was > 100 µM (inactive) and the GI50 (SNB-19) was > 100 µM (inactive). The GI50 (NCI-H460) was > 100 µM (inactive), the GI50 (UACC-257) was 43.7 µM (inactive) and the GI50 (CCRF-CEM) was > 100 µM (inactive). The GI50 (KM-20L2) was > 100 µM (inactive), the GI50 (K562) was 34.4 µM (inactive) and the GI50 (A498) was > 100 µM (inactive). The GI50 (OVCAR-3) was > 100 µM (inactive), the GI50 (DLD-1) was > 100 µM (inactive) and the GI50 (MOLT-4) was > 100 µM (inactive). The GI50 (UO-31) was 46.9 µM (inactive), the GI50 (A549) was 58.5 µM (inactive) and the GI50 (Malme-3M) was > 100 µM (inactive). The GI50 (SK-MEL-5) was 72.8 µM (inactive), the GI50 (TK-10) was > 100 µM (inactive) and the GI50 (SF-268) was > 100 µM (inactive). The GI50 (SK-MEL-28) was > 100 µM (inactive), the GI50 (SNB-78) was > 100 µM (inactive) and the GI50 (M19-MEL) was > 100 µM (inactive). For the same molecule, the GI50 (IGROV-1) was > 100 µM (inactive).
In the case of `CCc1nc(N)nc(N)c1-c1ccc(Cl)c(N=[N+]=[N-])c1`, the GI50 (MDA-MB-231) is reported as 14.8 µM (inactive), the GI50 (SF-539) is reported as 4.65 µM (inactive) and the GI50 (HOP-62) is reported as 9.53 µM (inactive). The GI50 (LOX IMVI) was 3.26 µM (inactive), the GI50 (SN12C) was 9.38 µM (inactive) and the GI50 (HOP-18) was 0.916 µM (active). The GI50 (MDA-MB-435) was 4.57 µM (inactive), the GI50 (SW-620) was 2.42 µM (inactive) and the GI50 (HOP-92) was 10.7 µM (inactive). The GI50 (SK-MEL-2) was 17.4 µM (inactive), the GI50 (U-251) was 5.38 µM (inactive) and the GI50 (SK-OV-3) was 30.2 µM (inactive). The GI50 (KM12) was 8.63 µM (inactive), the GI50 (NCI-H226) was 28.4 µM (inactive) and the GI50 (HCT-116) was 1.19 µM (inactive). For the same molecule, the GI50 (LXFL 529) was 6.24 µM (inactive), the GI50 (NCI-H522) was 7.06 µM (inactive) and the GI50 (SF-295) was 2.84 µM (inactive). For the same molecule, the GI50 (786-0) was 3.8 µM (inactive), the GI50 (OVCAR-5) was 21.8 µM (inactive) and the GI50 (DU-145) was 12.4 µM (inactive). The GI50 (NCI/ADR-RES) was 6.31 µM (inactive), the GI50 (XF498) was 31 µM (inactive) and the GI50 (EKVX) was 5.21 µM (inactive). For the same molecule, the GI50 (RPMI-8226) was 12.1 µM (inactive), the GI50 (COLO 205) was 11.9 µM (inactive) and the GI50 (Hs-578T) was 27.4 µM (inactive). The GI50 (NCI-H23) was 4.23 µM (inactive), the GI50 (HCC 2998) was 8.22 µM (inactive) and the GI50 (T47D) was 25.3 µM (inactive). The GI50 (KM-20L2) was 12.1 µM (inactive), the GI50 (K562) was 0.531 µM (active) and the GI50 (OVCAR-4) was 22.4 µM (inactive). For the same molecule, the GI50 (A498) was 16.5 µM (inactive), the GI50 (MCF7) was 7.24 µM (inactive) and the GI50 (OVCAR-3) was 13.4 µM (inactive). For the same molecule, the GI50 (DLD-1) was 5.47 µM (inactive), the GI50 (SNB-75) was 18.8 µM (inactive) and the GI50 (SK-MEL-5) was 3.74 µM (inactive). The GI50 (SF-268) was 6.4 µM (inactive), the GI50 (SK-MEL-28) was 15.4 µM (inactive) and the GI50 (SNB-78) was 18.2 µM (inactive). The GI50 (M19-MEL) was 11.9 µM (inactive).
For `COc1cc2c(ccc3c4cc(OC)c(OC)cc4c[n+](C)c23)cc1O` [FAGARONINE], the GI50 (HL-60) was 48 µM (inactive), the GI50 (SF-539) was 2.88 µM (inactive) and the GI50 (HOP-62) was 2.3 µM (inactive). For the same molecule, the GI50 (LOX IMVI) was > 33 µM (inactive), the GI50 (DMS-273) was 5.75 µM (inactive) and the GI50 (SN12C) was 0.726 µM (active). The GI50 (HOP-18) was > 75 µM (inactive), the GI50 (SW-620) was 12.7 µM (inactive) and the GI50 (HOP-92) was 23.6 µM (inactive). The GI50 (SK-MEL-2) was 41.4 µM (inactive), the GI50 (U-251) was 0.264 µM (active) and the GI50 (SK-OV-3) was 21.6 µM (inactive). The GI50 (KM12) was > 75 µM (inactive), the GI50 (NCI-H226) was 1.47 µM (inactive) and the GI50 (UACC-62) was 1.23 µM (inactive). For the same molecule, the GI50 (HCT-116) was 4.24 µM (inactive), the GI50 (DMS-114) was 2.37 µM (inactive) and the GI50 (NCI-H522) was 0.131 µM (active). For the same molecule, the GI50 (SF-295) was 7.93 µM (inactive), the GI50 (OVCAR-5) was 24 µM (inactive) and the GI50 (CAKI-1) was 61.7 µM (inactive). For the same molecule, the GI50 (HT-29) was > 73.3 µM (inactive), the GI50 (NCI/ADR-RES) was 63.2 µM (inactive) and the GI50 (XF498) was 4.54 µM (inactive). The GI50 (EKVX) was 39.6 µM (inactive), the GI50 (RPMI-8226) was > 65.3 µM (inactive) and the GI50 (COLO 205) was 15 µM (inactive). For the same molecule, the GI50 (HCT-15) was > 73.3 µM, the GI50 (NCI-H23) was 7.76 µM (inactive) and the GI50 (OVCAR-8) was 1.69 µM (inactive). The GI50 (SNB-19) was 1.15 µM (inactive), the GI50 (HCC 2998) was 34.4 µM (inactive) and the GI50 (NCI-H460) was 14.7 µM (inactive). For the same molecule, the GI50 (UACC-257) was > 67 µM (inactive), the GI50 (CCRF-CEM) was 2.02 µM (inactive) and the GI50 (KM-20L2) was > 75 µM (inactive). The GI50 (RXF 393) was 30 µM (inactive), the GI50 (K562) was 4.26 µM (inactive) and the GI50 (OVCAR-4) was 12.2 µM (inactive). For the same molecule, the GI50 (A498) was 3.94 µM (inactive), the GI50 (MCF7) was 4.15 µM (inactive) and the GI50 (OVCAR-3) was 4.72 µM (inactive). For the same molecule, the GI50 (DLD-1) was 67.5 µM (inactive), the GI50 (MOLT-4) was 4.28 µM (inactive) and the GI50 (UO-31) was > 72.8 µM (inactive). For the same molecule, the GI50 (A549) was 19.9 µM (inactive), the GI50 (Malme-3M) was 15.6 µM (inactive) and the GI50 (SNB-75) was 2.9 µM (inactive). For the same molecule, the GI50 (SK-MEL-5) was 4.09 µM (inactive), the GI50 (SF-268) was 0.0588 µM (active) and the GI50 (SK-MEL-28) was 52.7 µM (inactive). The GI50 (SNB-78) was 26.1 µM (inactive), the GI50 (M19-MEL) was 23.9 µM (inactive) and the GI50 (IGROV-1) was 23.2 µM (inactive).
